What was measured:
[1] = target: Norepinephrine transporter (Rattus norvegicus, UniProt Q9WTR4); test: Compound was tested for its ability to inhibit high-affinity uptake of [3H]NE into parietal and occipital cortex in rat
[2] = target: Sodium-dependent serotonin transporter (Rattus norvegicus, UniProt P31652); test: Compound was tested for its ability to inhibit high affinity uptake of [3H]5-HT into mid brain nerve endings (synaptosomes) in rat; type: subcellular
[3] = target: T1, Sodium-dependent dopamine transporter (Rattus norvegicus, UniProt P23977); test: Compound was tested for its ability to inhibit high affinity uptake of [3H]DA into rat striatal membrane; design: species or system Striatum
[4] = target: T1, Sodium-dependent dopamine transporter; test: ability to displace [3H]- Mazindol binding to cocaine binding sites on Dopamine transporter of rat striatal membranes; design: species or system Striatum, Membrane
[5] = target: T1, Sodium-dependent dopamine transporter; test: Binding affinity to a single, sodium-dependent site on the Dopamine transporter in rat striatal membranes; type: cell membranes, Striatum, Membrane
[6] = test system: Rattus norvegicus; test: Percent reduction in cocaine induced reward enhancement after administration of compound at 5 mg/kg or 10 mg/kg combined with 10 mg/kg of cocaine intraperitoneally in rats; type: functional

T1 sequence (P23977 whole entry): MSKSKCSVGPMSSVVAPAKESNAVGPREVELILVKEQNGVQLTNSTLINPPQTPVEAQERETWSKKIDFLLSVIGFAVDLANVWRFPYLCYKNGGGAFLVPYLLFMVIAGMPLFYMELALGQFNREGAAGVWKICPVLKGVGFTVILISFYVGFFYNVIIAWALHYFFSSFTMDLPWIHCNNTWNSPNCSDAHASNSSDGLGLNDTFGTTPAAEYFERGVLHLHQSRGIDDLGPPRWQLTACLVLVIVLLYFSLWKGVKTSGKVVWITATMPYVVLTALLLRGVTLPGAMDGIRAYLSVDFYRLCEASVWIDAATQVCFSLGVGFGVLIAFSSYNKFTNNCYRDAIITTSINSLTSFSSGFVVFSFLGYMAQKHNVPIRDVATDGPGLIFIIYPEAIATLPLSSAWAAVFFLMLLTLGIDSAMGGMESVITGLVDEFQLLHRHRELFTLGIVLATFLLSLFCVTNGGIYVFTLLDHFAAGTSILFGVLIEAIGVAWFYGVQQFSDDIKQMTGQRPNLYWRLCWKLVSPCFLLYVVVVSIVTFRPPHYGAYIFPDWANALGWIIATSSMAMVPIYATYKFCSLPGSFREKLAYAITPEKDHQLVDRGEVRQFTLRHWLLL
Sequence of Sodium-dependent serotonin transporter (P31652 whole entry): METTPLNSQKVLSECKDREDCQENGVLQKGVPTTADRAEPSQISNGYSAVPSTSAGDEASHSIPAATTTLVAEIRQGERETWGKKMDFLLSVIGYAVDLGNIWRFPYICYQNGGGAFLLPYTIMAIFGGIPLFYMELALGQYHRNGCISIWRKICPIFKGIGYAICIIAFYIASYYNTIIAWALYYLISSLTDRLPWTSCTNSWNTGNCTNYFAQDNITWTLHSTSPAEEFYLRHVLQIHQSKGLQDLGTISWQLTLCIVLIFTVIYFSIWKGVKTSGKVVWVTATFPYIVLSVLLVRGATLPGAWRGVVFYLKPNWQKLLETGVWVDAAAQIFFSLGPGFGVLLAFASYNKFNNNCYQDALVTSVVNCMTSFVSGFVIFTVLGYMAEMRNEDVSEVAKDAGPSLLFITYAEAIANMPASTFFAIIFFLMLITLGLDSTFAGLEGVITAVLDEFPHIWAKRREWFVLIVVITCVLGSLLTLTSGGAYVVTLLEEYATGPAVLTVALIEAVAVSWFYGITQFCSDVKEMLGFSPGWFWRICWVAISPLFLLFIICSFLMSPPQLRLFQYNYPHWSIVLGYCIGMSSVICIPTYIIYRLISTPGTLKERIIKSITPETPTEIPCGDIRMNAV
Sequence of Norepinephrine transporter (Q9WTR4 whole entry): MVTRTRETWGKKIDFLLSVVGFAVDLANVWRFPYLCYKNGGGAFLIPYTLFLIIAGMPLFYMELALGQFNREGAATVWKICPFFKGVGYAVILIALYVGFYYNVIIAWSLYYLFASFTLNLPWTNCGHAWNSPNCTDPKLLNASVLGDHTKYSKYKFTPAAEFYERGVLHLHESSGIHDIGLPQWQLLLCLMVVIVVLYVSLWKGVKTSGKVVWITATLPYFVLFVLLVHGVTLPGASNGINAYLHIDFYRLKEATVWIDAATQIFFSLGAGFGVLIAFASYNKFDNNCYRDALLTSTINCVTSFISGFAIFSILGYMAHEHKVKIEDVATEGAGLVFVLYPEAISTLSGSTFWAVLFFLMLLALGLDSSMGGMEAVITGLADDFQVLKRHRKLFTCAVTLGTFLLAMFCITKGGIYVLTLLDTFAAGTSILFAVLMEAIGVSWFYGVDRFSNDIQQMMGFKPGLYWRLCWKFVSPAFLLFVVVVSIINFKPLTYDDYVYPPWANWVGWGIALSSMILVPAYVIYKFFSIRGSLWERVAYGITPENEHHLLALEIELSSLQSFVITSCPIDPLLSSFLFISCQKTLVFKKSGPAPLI

With CCCC1C(c2ccc(F)cc2)CC2CC(F)(F)C1N2C (stereo not drawn) the Ki [1] was 3.79 µM, the Ki [2] was 7.91 µM and the Ki [3] was 1.45 µM. The Ki [4] was 0.86 µM.
With CCCC1C(c2ccc(F)cc2)CC2C[C@@H](F)C1N2C (stereo partly drawn) the Ki [1] was 0.126 µM, the Ki [2] was 1.25 µM and the Ki [3] was 0.304 µM. It also gave a Ki [4] of 1.15 µM.
OC1(c2ccc(Cl)cc2)c2ccccc2C2=NCCN21 (stereo not drawn) [MAZINDOL] showed a Kd [5] of 0.00863 µM.
For CCCC1C(c2ccc(F)cc2)CC2C[C@H](F)C1N2C (stereo partly drawn), the Ki [1] was 0.052 µM, the Ki [2] was 0.561 µM and the Ki [3] was 0.049 µM. The Reduction [6] was 60%.
